Test results from paper PMC5065773 (Antiviral research, 2016).
Like-named read-outs stand apart in the source and are kept apart here.

Experiments:
[1] = target: DENV 4 Pro (Dengue virus type 4, UniProt P09866); assay: In vitro protease assay with fluorogenic substrate Bz-Nle-Lys-Arg-Arg-AMC; format: biochemical, dengue virus serotype 4 (DENV4); settings: for Hill-slope DENV 4 Pro: Hill slope of IC50 curve
[2] = target: DENV 3 Pro (Dengue virus type 3, UniProt P27915); assay: as above; format: biochemical, dengue virus serotype 3 (DENV3); settings: for Hill-slope DENV 3 Pro: Hill slope of IC50 curve
DENV 3 Pro, sequence (P27915 1474-1651): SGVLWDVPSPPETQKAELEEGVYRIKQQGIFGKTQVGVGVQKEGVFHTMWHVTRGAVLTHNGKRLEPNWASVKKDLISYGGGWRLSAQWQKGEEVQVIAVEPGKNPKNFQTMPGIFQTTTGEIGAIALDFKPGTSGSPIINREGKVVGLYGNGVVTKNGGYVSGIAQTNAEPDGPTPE

[3] = target: T1, DENV2 protease (Dengue virus type 2, UniProt P14340); assay: as above; format: biochemical, dengue virus serotype 2 (DENV2); settings: for Hill-Slope DENV 2 Pro: Hill slope of IC50 curve
T1 sequence (P14340 1476-1653): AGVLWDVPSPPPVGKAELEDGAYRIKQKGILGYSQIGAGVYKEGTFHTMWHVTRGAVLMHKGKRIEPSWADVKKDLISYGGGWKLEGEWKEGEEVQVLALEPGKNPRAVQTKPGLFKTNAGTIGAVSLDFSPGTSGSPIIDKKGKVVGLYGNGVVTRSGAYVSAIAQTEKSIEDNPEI

[4] = system: BHK-21 cells; assay: Cytotoxicity to BHK-21 cells; format: cell-based; settings: for CC50: ~24 h, CCK-8
[5] = target: WNV protease (West Nile virus, UniProt Q9Q6P4); assay: In vitro protease assay with fluorogenic substrate Bz-Nle-Lys-Arg-Arg-AMC; format: biochemical; settings: for Hill-slope WNV Pro: Hill slope of IC50 curve; for inhibition at 25 µM: read-out: Inhibition of WNVpro (%) At 25 μM
WNV protease, sequence (Q9Q6P4 1428-1467): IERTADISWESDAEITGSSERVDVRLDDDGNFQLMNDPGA
WNV protease, sequence (Q9Q6P4 1506-1683): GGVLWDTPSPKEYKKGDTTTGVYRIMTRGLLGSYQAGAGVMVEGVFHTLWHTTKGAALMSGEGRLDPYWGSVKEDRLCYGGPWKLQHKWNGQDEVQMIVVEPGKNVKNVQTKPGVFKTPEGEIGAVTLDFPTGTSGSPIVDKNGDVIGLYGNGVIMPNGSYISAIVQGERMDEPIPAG

[6] = target: DENV 1 Pro (Dengue virus type 1, UniProt P17763); assay: as above; format: biochemical, dengue virus serotype 1 (DENV1); settings: for Hill-slope DENV 1 Pro: Hill slope of IC50 curve
DENV 1 Pro, sequence (P17763 1394-1445, looked up, natural form): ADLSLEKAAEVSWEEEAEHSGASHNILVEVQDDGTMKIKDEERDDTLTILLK
DENV 1 Pro, sequence (P17763 1476-1660): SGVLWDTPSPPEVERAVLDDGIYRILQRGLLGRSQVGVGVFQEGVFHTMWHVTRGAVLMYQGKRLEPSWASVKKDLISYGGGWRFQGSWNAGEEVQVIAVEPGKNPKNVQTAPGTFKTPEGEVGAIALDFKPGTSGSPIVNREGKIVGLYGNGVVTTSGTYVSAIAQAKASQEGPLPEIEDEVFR

[7] = target: T1, DENV2 protease; assay: Tryptophan; format: binding, dengue virus serotype 2 (DENV2); settings: for Competition with BPTI in fluorescence quenching: 50 μM compound and 10 μM BPTI; for Quenching of tryptophan fluorescence of DENV2 protease: 0.09-50 μM inhibitor, 2 μM protease
[8] = target: T1, DENV2 protease; assay: Determination of Ki and kinetics of inhibition; format: biochemical, dengue virus serotype 2 (DENV2); settings: for Mode of inhibition (Lineweaver-Burk plots): DENV2 protease
[9] = system: DENV2; assay: Viral RNA copy number by qRT-PCR in DENV2-infected BHK-21 cells; format: cell-based; settings: 24 h
[10] = system: DENV2 replicon; assay: Renilla luciferase reporter replicon assay in stable BHK-21/DENV2 replicon cells; format: cell-based
[11] = target: WNVpro; settings: read-out: Ki of BPTI against WNVpro; ref Aleshin et al., 2007; cited from earlier work
[12] = target: DENV2pro; settings: read-out: Ki of BPTI against DENV2pro; ref Mueller et al., 2007; cited from earlier work

DENV 4 Pro, sequence (P09866 1475-1652): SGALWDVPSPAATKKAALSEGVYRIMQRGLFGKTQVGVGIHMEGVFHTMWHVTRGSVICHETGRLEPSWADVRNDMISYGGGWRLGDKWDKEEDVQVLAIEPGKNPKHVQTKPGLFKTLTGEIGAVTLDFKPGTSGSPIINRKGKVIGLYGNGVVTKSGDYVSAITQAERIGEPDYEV

| Compound | IC50 [1] | Hill-slope DENV 4 Pro [1] | Hill-slope DENV 3 Pro [2] | IC50 [3] | Hill-Slope DENV 2 Pro [3] | CC50 [4] | IC50 [5] | Hill-slope WNV Pro [5] | inhibition at 25 µM [5] | IC50 [6] | Hill-slope DENV 1 Pro [6] | Competition with BPTI in fluorescence quenching [7] | Quenching of tryptophan fluorescence of DENV2 protease [7] | Ki [8] | Mode of inhibition (Lineweaver-Burk plots) [8] | Inhibition of DENV2 viral RNA (qRT-PCR) vs DMSO control ([9]; 2 μM compound) | other results |
| --- | --- | --- | --- | --- | --- | --- | --- | --- | --- | --- | --- | --- | --- | --- | --- | --- | --- |
| Cc1ccc(C(=O)c2cc(O)c(O)c([N+](=O)[O-])c2)cc1 [Compound F, Tolcapone] | 640 ± 30 nM | 1.45±0.05 | 1.60±0.08 | 980 ± 60 nM | 1.51±0.07 | 29200 nM | 700 ± 40 nM | 1.58±0.05 | 95% | 1150 ± 100 nM | 1.26±0.10 | did not compete with BPTI | quenched tryptophan fluorescence in a dose dependent manner | 220 ± 30 nM | competitive inhibition | good inhibition | EC50 ([10]; Dengue virus, DENV2, BHK-21, 24 h, read-out: EC50 (μM) DENV2 Replicon): 2.29 ± 0.3 µM; Inhibition of DENV2 replicon replication ([10]; screened at 5, 10 and 25 μM vs 1% DMSO control): inhibit DENV2 replication |
| Cc1ccc(C(=O)Nc2ccc(S(=O)(=O)O)c3cc(S(=O)(=O)O)cc(S(=O)(=O)O)c23)cc1NC(=O)c1cccc(NC(=O)Nc2cccc(C(=O)Nc3cc(C(=O)Nc4ccc(S(=O)(=O)O)c5cc(S(=O)(=O)O)cc(S(=O)(=O)O)c45)ccc3C)c2)c1 [Compound H, Suramin] | 3730 ± 140 nM | 1.25±0.12 | 1.05±0.04 | 2660 ± 190 nM | 0.97±0.04 | – | 3240 ± 110 nM | 1.29±0.03 | 73% | 2760 ± 250 nM | 0.92±0.05 | – | failed to quench the tryptophan fluorescence | 870 ± 140 nM | – | – | IC50 [2]: 3250 ± 180 nM; inhibition at 10 µM ([3]; read-out: Inhibition of DENV2pro (%) At 10 μM): 72%; inhibition at 25 µM ([3]; read-out: Inhibition of DENV2pro (%) At 25 μM): 85%; Cytotoxicity at the highest concentration tested ([4]; ~ 100 μM, 24 h): did not exhibit any cytotoxicity; inhibition at 10 µM ([5]; read-out: Inhibition of WNVpro (%) At 10 μM): 58%; Inhibition of DENV2 viral RNA (qRT-PCR) vs DMSO control ([9]; 10 μM compound): good inhibition |
| Bovine pancreatic trypsin inhibitor [BPTI] | – | – | – | – | – | – | – | – | – | – | – | – | – | – | – | – | Ki [11]: 24 nM; Ki [12]: 26 nM |
| Tannic acid [Compound G] | – | 0.79±0.03 | 1.53±0.06 | – | 1.60±0.07 | 68100 nM | – | 0.88±0.05 | – | – | 1.79±0.09 | partially restore the fluorescence | quenched tryptophan fluorescence in a dose dependent manner | – | competitive inhibition | good inhibition | Inhibition of DENV2pro (%) At 10 μM ([3]; 10 μM compound): 99%; Inhibition of DENV2pro (%) At 25 μM ([3]; 25 μM compound): 101%; Inhibition of WNVpro (%) At 10 μM ([5]; 10 μM compound): 98%; Inhibition of WNVpro (%) At 25 μM ([5]; 25 μM compound): 96%; IC50 ([5]; read-out: IC50 WNV Pro, mean of duplicate experiments ± SEM): 120 ± 10 nM; Ki ([8]; competitive inhibition model, 20 nM DENV2 protease): 340 ± 50 nM |
